Experimental data published in ChEMBL document CHEMBL1201862, “PubChem BioAssay data set” (2004).
Values joined by “and” are separate entries in the source; they are usually repeats but may differ in a detail not shown here. Identical values can stand only once.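 Interpolation was linear, between the two tested concentrations surrounding the appropriate level; five concentrations were tested over 48 hours in 96-well plates. GI50 marks 50% less growth.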 Active and inactive are the calls of the source. Rule as the data show it: active = GI50 up to about 1.1 µM and inactive = higher.

Columns and labels:
Assay in all cases: growth of human tumour cells (NCI), 48 h
SK-MEL-28 = tested on: SK-MEL-28
UO-31 = tested on: UO-31
HL-60 = tested on: HL-60
COLO 205 = tested on: COLO 205
NCI/ADR-RES = tested on: NCI/ADR-RES
SK-OV-3 = tested on: SK-OV-3
RPMI-8226 = tested on: RPMI-8226
HCT-15 = tested on: HCT-15
EKVX = tested on: EKVX
OVCAR-8 = tested on: OVCAR-8
SF-268 = tested on: SF-268
SNB-75 = tested on: SNB-75
SNB-19 = tested on: SNB-19
NCI-H226 = tested on: NCI-H226
786-0 = tested on: 786-0
CCRF-CEM = tested on: CCRF-CEM
OVCAR-3 = tested on: OVCAR-3
ACHN = tested on: ACHN
LOX IMVI = tested on: LOX IMVI
SR = tested on: SR

Row | Structure (SMILES) | GI50 (SK-MEL-28) | GI50 (UO-31) | GI50 (HL-60) | GI50 (COLO 205) | GI50 (NCI/ADR-RES) | GI50 (SK-OV-3) | GI50 (RPMI-8226) | GI50 (HCT-15) | GI50 (EKVX) | GI50 (OVCAR-8) | GI50 (SF-268) | GI50 (SNB-75) | GI50 (SNB-19) | GI50 (NCI-H226) | GI50 (786-0) | GI50 (CCRF-CEM) | GI50 (OVCAR-3) | GI50 (ACHN) | GI50 (LOX IMVI) | GI50 (SR)
1 | C=CC1(C)CC(=O)C2(O)C(C)(O1)C(OC(C)=O)C(O)C1C(C)(C)CCC(O)C12C (stereo unspecified) | > 150 µM (inactive) | 30.5 µM (inactive) | 42.1 µM (inactive) | 104 µM (inactive) | 70.6 µM (inactive) | 29.7 µM (inactive) | 27.1 µM (inactive) | > 150 µM | > 150 µM (inactive) | > 76.4 µM (inactive) | > 128 µM (inactive) | 52 µM (inactive) | > 150 µM (inactive) | 3.41 µM (inactive) | > 100 µM (inactive) | 22.2 µM (inactive) | > 150 µM (inactive) | > 100 µM (inactive) | 60.8 µM (inactive) | –
2 | Cc1c(Cl)cccc1NC(=O)CC1Sc2ccccc2NC1=O (stereo unspecified) | – | 19.4 µM (inactive) and 19.6 µM (inactive) | 12.3 µM (inactive) and 8.43 µM (inactive) | 46.3 µM (inactive) and 31.4 µM (inactive) | 17 µM (inactive) | 16.4 µM (inactive) and 19.3 µM (inactive) | 23.9 µM (inactive) and 32.4 µM (inactive) | – | 46.9 µM (inactive) and 49.8 µM (inactive) | 16.4 µM (inactive) and 20.8 µM (inactive) | – | – | 19.4 µM (inactive) and 20.1 µM (inactive) | 19.1 µM (inactive) and 17.9 µM (inactive) | 24 µM (inactive) and 17.4 µM (inactive) | 68.4 µM (inactive) and 46.2 µM (inactive) | 15.3 µM (inactive) and 17.9 µM (inactive) | 23.7 µM (inactive) and 23.5 µM (inactive) | 24.8 µM (inactive) and 33.8 µM (inactive) | 6.12 µM (inactive)
3 | Cc1nc(=O)[nH]c2s/c(=N/C3CCCCC3)n(C3CCCCC3)c(=O)c12 | > 100 µM (inactive) | > 100 µM (inactive) | > 100 µM (inactive) | > 100 µM (inactive) | > 100 µM (inactive) | > 100 µM (inactive) | > 100 µM (inactive) | > 100 µM | > 100 µM (inactive) | > 100 µM (inactive) | – | > 100 µM (inactive) | > 100 µM (inactive) | > 100 µM (inactive) | > 100 µM (inactive) | > 100 µM (inactive) | > 100 µM (inactive) | > 100 µM (inactive) | > 100 µM (inactive) | –
4 | N#CC(C#N)=Cc1ccc2c(c1)OC(Cl)O2 (stereo unspecified) | 19.9 µM (inactive) | 16.9 µM (inactive) | 6.92 µM (inactive) | 24.3 µM (inactive) | 42.1 µM (inactive) | 28.5 µM (inactive) | 17.8 µM (inactive) | 19.9 µM | 27.4 µM (inactive) | 31.6 µM (inactive) | 29.4 µM (inactive) | 25.8 µM (inactive) | 26.4 µM (inactive) | 20.2 µM (inactive) | 20.3 µM (inactive) | 20.4 µM (inactive) | 22.1 µM (inactive) | 19.9 µM (inactive) | 18.4 µM (inactive) | –
5 | Cc1cn(C2CC(ON3C(=O)c4ccccc4C3=O)C(CO)O2)c(=O)[nH]c1=O (stereo unspecified) | – | > 10 µM (inactive) | > 10 µM (inactive) | – | > 10 µM (inactive) | > 10 µM (inactive) | – | > 10 µM | > 10 µM (inactive) | > 10 µM (inactive) | > 10 µM (inactive) | > 10 µM (inactive) | > 10 µM (inactive) | > 10 µM (inactive) | > 10 µM (inactive) | > 10 µM (inactive) | > 10 µM (inactive) | > 10 µM (inactive) | > 10 µM (inactive) | > 10 µM (inactive)
6 | Cc1ccc(C(=O)N/N=C(\N=N\c2ccccc2)c2ccc(N(C)C)cc2)cc1 | > 100 µM (inactive) | > 100 µM (inactive) | > 100 µM (inactive) | 57.3 µM (inactive) | > 100 µM (inactive) | > 100 µM (inactive) | > 100 µM (inactive) | > 100 µM | > 100 µM (inactive) | > 100 µM (inactive) | 50.7 µM (inactive) | – | 80.4 µM (inactive) | > 100 µM (inactive) | 68.2 µM (inactive) | > 100 µM (inactive) | > 100 µM (inactive) | – | > 100 µM (inactive) | 35.5 µM (inactive)
7 | C=C(C(=O)O)[C@@H]1C[C@@H]2O[C@H]1[C@@H](O)[C@@H](C)CCCC(C)=CCC[C@@]2(C)O | > 100 µM (inactive) | > 100 µM (inactive) and 69 µM (inactive) | – | > 100 µM (inactive) and 72.6 µM (inactive) | > 100 µM (inactive) | > 100 µM (inactive) | – | > 100 µM and 78.3 µM | > 100 µM (inactive) and > 94.4 µM (inactive) | > 100 µM (inactive) | > 100 µM (inactive) | > 100 µM (inactive) | > 100 µM (inactive) | > 100 µM (inactive) | 56.6 µM (inactive) and > 69.5 µM (inactive) | 33.3 µM (inactive) and > 46.8 µM (inactive) | > 100 µM (inactive) and > 88.7 µM (inactive) | 90.6 µM (inactive) | 41.3 µM (inactive) and > 47.2 µM (inactive) | 49.1 µM (inactive)
8 | CN(C)c1ccc(C2CC(c3ccc4ccccc4c3O)=NN2c2ccc([N+](=O)[O-])cc2[N+](=O)[O-])cc1 (stereo unspecified) | 56 µM (inactive) | 27.4 µM (inactive) | – | 38.7 µM (inactive) | 43.5 µM (inactive) | > 100 µM (inactive) | – | 61.5 µM | – | 56 µM (inactive) | 98.4 µM (inactive) | > 100 µM (inactive) | – | 89.5 µM (inactive) | > 100 µM (inactive) | 22.3 µM (inactive) | 22 µM (inactive) | > 100 µM (inactive) | – | 12.6 µM (inactive)
9 | O=C(O)c1ccc(OCc2nc3cc(C(F)(F)F)ccc3nc2-c2ccccc2)cc1 | 61 µM (inactive) | 22 µM (inactive) | 40 µM (inactive) | 19.8 µM (inactive) | 44.6 µM (inactive) | – | – | 39.1 µM | 55.7 µM (inactive) | 41.9 µM (inactive) | 41.8 µM (inactive) | 17.2 µM (inactive) | 73.8 µM (inactive) | 91.4 µM (inactive) | 98.4 µM (inactive) | 42.8 µM (inactive) | 34.8 µM (inactive) | 30.9 µM (inactive) | 40 µM (inactive) | 11.5 µM (inactive)
10 | C=CCSC1=N/C(=C\c2ccc(C)cc2)C(=O)N1CC=C | 45.7 µM (inactive) | 22.9 µM (inactive) | 12.2 µM (inactive) | 20.6 µM (inactive) | 40.5 µM (inactive) | 63.4 µM (inactive) | 13.9 µM (inactive) | 25.3 µM | 10.1 µM (inactive) | 24.8 µM (inactive) | 36.6 µM (inactive) | – | 32.4 µM (inactive) | – | 18.3 µM (inactive) | – | 57.5 µM (inactive) | 36.1 µM (inactive) | 26.5 µM (inactive) | 11.5 µM (inactive)
11 | NC(=S)NS(=O)(=O)c1ccc(F)cc1F | > 100 µM (inactive) | – | > 100 µM (inactive) | > 100 µM (inactive) | > 100 µM (inactive) | > 100 µM (inactive) | > 100 µM (inactive) | > 100 µM | > 100 µM (inactive) | > 100 µM (inactive) | > 100 µM (inactive) | > 100 µM (inactive) | > 100 µM (inactive) | > 100 µM (inactive) | > 100 µM (inactive) | > 100 µM (inactive) | > 100 µM (inactive) | > 100 µM (inactive) | > 100 µM (inactive) | –
12 | CN1C(=O)CC2CCC(=O)N2c2cccnc21 (stereo unspecified) | > 100 µM (inactive) | > 100 µM (inactive) | > 100 µM (inactive) | > 100 µM (inactive) | > 100 µM (inactive) | – | > 100 µM (inactive) | > 100 µM | > 100 µM (inactive) | > 100 µM (inactive) | > 100 µM (inactive) | – | > 100 µM (inactive) | > 100 µM (inactive) | > 100 µM (inactive) | > 100 µM (inactive) | > 100 µM (inactive) | > 100 µM (inactive) | > 100 µM (inactive) | > 100 µM (inactive)
13 | O=c1cc(C(F)(F)F)c2cc3c(cc2o1)NCCC3 | > 100 µM (inactive) | 61.1 µM (inactive) | > 100 µM (inactive) | > 100 µM (inactive) | > 100 µM (inactive) | – | > 100 µM (inactive) | > 100 µM | 6.4 µM (inactive) | 42.2 µM (inactive) | 24.5 µM (inactive) | – | 23 µM (inactive) | > 100 µM (inactive) | 35.2 µM (inactive) | > 100 µM (inactive) | > 100 µM (inactive) | > 100 µM (inactive) | > 100 µM (inactive) | > 100 µM (inactive)
14 | CC(C)(C)OC(=O)Nc1nnc(S(N)(=O)=O)s1 | > 100 µM (inactive) | > 100 µM (inactive) | > 100 µM (inactive) | > 100 µM (inactive) | > 100 µM (inactive) | > 100 µM (inactive) | > 100 µM (inactive) | > 100 µM | > 100 µM (inactive) | > 100 µM (inactive) | > 100 µM (inactive) | – | > 100 µM (inactive) | > 100 µM (inactive) | > 100 µM (inactive) | > 100 µM (inactive) | > 100 µM (inactive) | > 100 µM (inactive) | > 100 µM (inactive) | > 100 µM (inactive)
15 | O=C1c2ccccc2-c2oc(=O)c3ccccc3c21 | > 100 µM (inactive) | > 100 µM (inactive) | > 100 µM (inactive) | > 100 µM (inactive) | > 100 µM (inactive) | > 100 µM (inactive) | 41.3 µM (inactive) | > 100 µM | 24.8 µM (inactive) | > 100 µM (inactive) | – | > 100 µM (inactive) | > 100 µM (inactive) | > 100 µM (inactive) | > 100 µM (inactive) | > 100 µM (inactive) | > 100 µM (inactive) | > 100 µM (inactive) | > 100 µM (inactive) | –
